Entries after “also recorded” stand apart in the source; their conditions may differ.
How the values were obtained:
[1] = cited from earlier work
[2] = ethanol / ethyl alcohol, normal temperatures; cited from earlier work
[3] = system: Tumor Necrosis Factor-alpha (TNF-α); test: ELISA for TNF-α in culture media of EpiDermFT tissue inoculated with C. acnes; format: cell-based, human; details: C. acnes ATCC 11827 48 hours, 24-hour treatment
Method: (§1) EpiDermFT (EFT-400, MatTek Europe, Bratislava Slovak Republic) is a multilayered reconstituted model of the human dermis and epidermis, formed by culturing normal, human epidermal keratinocytes (NHEK) and normal, human dermal fibroblasts (NHFB). […] The dermal compartment is composed of a collagen matrix containing viable normal human dermal fibroblasts (NHDF). […] Testing was conducted on EpiDermFT in 12-well plates filled with culture medium without antibiotics at 37° C., 5% CO2, saturated humidity (90% RH). Inoculum-6 μL of lipid mix (olive oil and neutral triacylglycerol mixed 1:1) and 60 μL of C. acnes ATCC 11827, 10^7-10^8 CFU/mL-was applied to EpiDerm tissue for 48 hours. […] At the end of the treatment period, culture media was collected and stored at -20° C. for subsequent analysis by ELISA immunoassay for two inflammatory markers TNF-α and C[…] using commercially-available test kits-QuantikineTM ELISA Human Caspase-1/ICE Immunoassay and Human TNF-α Immunoassay both from R&D Systems, Inc. (Minneapolis, MN), Catalog Number DCA100 and DTAOOD, respectively.

[4] = system: Caspase-1 (CASP-1); test: ELISA for Caspase-1 in culture media of EpiDermFT tissue inoculated with C. acnes; format: cell-based, human; details: C. acnes ATCC 11827 48 hours, 24-hour treatment
Method: as §1

| CASP-1 inflammatory response versus the C. acnes treated control [4] | SMILES | solvent quality for azelaic acid ([1]; isopropanol) | maximum azelaic acid dissolved in water ([1]; water) | stability of azelaic acid in ethanol [2] | TNF-α inflammatory response versus the C. acnes treated control [3] |
| --- | --- | --- | --- | --- | --- |
|  | O=C(O)CCCCCCCC(=O)O [azelaic acid, Azelaic acid] | good | ≤ 0.24 % by weight (w/w) | unstable; also recorded: instability |  |
| increased inflammatory response | O=C(O)c1ccccc1O [Group 1, salicylic acid] |  |  |  | increased inflammatory response |
